According to US20140315809A1, “CALCIMIMETICS AND METHODS FOR THEIR USE” (KAI PHARMACEUTICALS INC., priority 2011, published 2014):
Where two headings read alike, the source gives them in different places.

Assays:
[1] = Single-dose clinical study: pharmacokinetics, noncompartmental analysis; format: in vivo, human; conditions: for clearance / AUC / Cmax / half-life / Vd: human; for Vd: read-out: Vss
Experimental: (§1) A clinical study was performed to assess the safety and tolerability of rising single doses of Ac-c(C)arrrar-NH2 (SEQ ID NO:3), administered by IV bolus to patients diagnosed with CKD-BMD and SHPT, and who were receiving hemodialysis. Data were generated to measure changes in patient serum intact PTH (iPTH) and serum calcium as well as bioavailability of the single dose of Ac-c(C)arrrar-NH2 (SEQ ID NO:3).
(§2) A double-blind, randomized, placebo-controlled, multicenter study in subjects receiving thrice-weekly hemodialysis (HD) was designed and carried out. The major inclusion criteria included hemodialysis for at least 3 months prior to the start of the study, a serum iPTH level greater than 300 pg/mL, a serum cCa (corrected calcium) level greater than or equal to 9.0 mg/dL and receiving of stable doses of active vitamin D or analogs, phosphate binders, and calcium supplements.
(§3) Cohorts 1, 2 and 3 were conducted with a two-period crossover design. Each cohort enrolled 4 subjects randomized 1:1 to Ac-c(C)arrrar-NH2 (SEQ ID NO:3) followed by placebo or placebo followed by Ac-c(C)arrrar-NH2 (SEQ ID NO:3). The dose levels of Ac-c(C)arrrar-NH2 (SEQ ID NO:3) for Cohorts 1-3 were 5, 10 and 20 mg. Cohort 4 enrolled 8 subjects who were randomized 1:1 to 40 mg Ac-c(C)arrrar-NH2 (SEQ ID NO:3) or placebo in a parallel group. Cohort 5 enrolled 8 subjects were randomized 1:1 to 60 mg Ac-c(C)arrrar-NH2 (SEQ ID NO:3) or placebo in a parallel group.
(§4) Ac-c(C)arrrar-NH2 (SEQ ID NO:3) or placebo was administered by IV bolus injection 2-4 hours following completion of HD.
Pharmacokinetic (PK) analysis was performed on samples obtained from the treated subjects to determine bioavailability of the administered Ac-c(C)arrrar-NH2 (SEQ ID NO:3). […] Clearance (CL) and volume of distribution as steady state (Vss) values appear to be dose-independent over the range evaluation. Total clearance of Ac-c(C)arrrar-NH2 (SEQ ID NO:3) was approximately about 2 L/h. Ac-c(C)arrrar-NH2 (SEQ ID NO:3) was readily cleared from the central compartment by hemodialysis.

[2] = system: patients diagnosed with CKD-BMD and SHPT receiving hemodialysis; assay: Single-dose clinical study: corrected calcium; format: in vivo, human; conditions: single IV bolus 5-60 mg
Experimental: as §1
A double-blind, randomized, placebo-controlled, multicenter study in subjects receiving thrice-weekly hemodialysis (HD) was designed and carried out. The major inclusion criteria included hemodialysis for at least 3 months prior to the start of the study, a serum iPTH level greater than 300 pg/mL, a serum cCa (corrected calcium) level greater than or equal to 9.0 mg/dL and receiving of stable doses of active vitamin D or analogs, phosphate binders, and calcium supplements. […]
Serum iPTH levels were determined using the electrochemiluminescence immunoassay (ECLIA) on the Roche Elecsys® analyzer. Calcium levels were adjusted for albumin <4 g/dL with the following equation: cCa=[measured Ca in mg/dL]+[4-(albumin in g/dL)]×0.8
The effects of Ac-c(C)arrrar-NH2 (SEQ ID NO:3) administration on serum iPTH and corrected calcium levels was also determined in this study. […] Blood from each subject was then analyzed to determine levels of iPTH and corrected calcium. […]

[3] = system: patients diagnosed with CKD-BMD and SHPT receiving hemodialysis; assay: Single-dose clinical study: adverse events; format: in vivo, human; conditions: for Adverse Event: Anemia / Adverse Event: Congestive heart failure / Adverse Event: Decreased ionized calcium / Adverse Event: Gastro-esophageal reflux / Adverse Event: Injection site pruritis / Adverse Event: Paresthesias / Adverse Event: Pneumonia / Adverse Event: Toothache / Number of subjects with ≧1 AE: n (%) of subjects
Experimental: as §1, §2, §3, §4
Adverse events were captured through 7 days after study drug administration.
Adverse events experienced by each of the subjects was recorded for 7 days after administration of the Ac-c(C)arrrar-NH2 (SEQ ID NO:3) or placebo. A single serious adverse event occurred in one subject who had been treated with placebo in the 10 mg dose cohort. The subject discontinued form the study prior to receiving Ac-c(C)arrrar-NH2 (SEQ ID NO:3). There were no reports of nausea, vomiting or diarrhea.

[4] = system: 5/6 nephrectomy (Nx) rat model of renal insufficiency; assay: PTH suppression in 5/6 Nx rats, daily dosing for 28 days; format: in vivo; conditions: daily 28 days, Ac-c(C)arrrar-NH2 1 mg/kg IV, cinacalcet 10 mg/kg PO
Experimental: The therapeutic efficacy of Ac-c(C)arrrar-NH2 (SEQ ID NO:3) was assessed using the 5/6 nephrectomy (Nx) rat model of renal insufficiency. The 5/6 Nx male rats were obtained from Charles River Laboratories (Wilmington, Mass.). These rats have undergone surgical removal of one kidney and ⅔ of the other kidney and were fed a high-phosphate diet. All experimental procedures with animals were performed according to IACUC guidelines. Statistical analysis was performed using one-way ANOVA with Bonferroni post test. All p-values are nominal.
Tail vein blood samples were taken periodically for measurement of PTH. PTH was measured using the Immutopics BioActive Intact ELISA (Cat #60-2700; Immutopics, San Clemente, Calif.).

[5] = plasma, Cohort 1, 5 mg single IV bolus, hemodialysis subjects, geometric mean
[6] = plasma, Cohort 2, 10 mg single IV bolus, hemodialysis subjects, geometric mean
[7] = plasma, Cohort 3, 20 mg single IV bolus, hemodialysis subjects, geometric mean
[8] = plasma, Cohort 4, 40 mg single IV bolus, hemodialysis subjects, geometric mean
[9] = plasma, Cohort 5, 60 mg single IV bolus, hemodialysis subjects, geometric mean

CC(=O)N[C@H](CSSC[C@H](N)C(=O)O)C(=O)N[C@H](C)C(=O)N[C@H](CCCNC(=N)N)C(=O)N[C@H](CCCNC(=N)N)C(=O)N[C@H](CCCNC(=N)N)C(=O)N[C@H](C)C(=O)N[C@H](CCCNC(=N)N)C(N)=O [Ac-c(C)arrrar-NH2]
Clearance (CL) and volume of distribution (Vss) relative to dose ([1]; 5-60 mg single IV bolus): dose-independent
total plasma exposure (Cmax and AUCall) relative to dose ([1]; 5-60 mg single IV bolus): reasonably proportional to the administered dose
clearance ([1]; in vivo, intravenous, estimated, hemodialysis subjects, read-out: Hemodialysis clearance (converted)): ~550 mL/min
AUC [1, 5]: 1080 ng·h/mL
Cmax [1, 5]: 133 ng/mL
clearance ([1]; plasma, Cohort 1, 5 mg single IV bolus, hemodialysis subjects, geometric mean, read-out: CL (converted)): 28 mL/min
half-life ([1]; plasma, Cohort 1, 5 mg single IV bolus, hemodialysis subjects, geometric mean, read-out: T½ (converted)): 121 h
Vd [1, 5]: 278 L
AUC [1, 6]: 2770 ng·h/mL
Cmax [1, 6]: 257 ng/mL
clearance ([1]; plasma, Cohort 2, 10 mg single IV bolus, hemodialysis subjects, geometric mean, read-out: CL (converted)): 31.8 mL/min
half-life ([1]; plasma, Cohort 2, 10 mg single IV bolus, hemodialysis subjects, geometric mean, read-out: T½ (converted)): 81.7 h
Vd [1, 6]: 203 L
AUC [1, 7]: 4680 ng·h/mL
Cmax [1, 7]: 479 ng/mL
clearance ([1]; plasma, Cohort 3, 20 mg single IV bolus, hemodialysis subjects, geometric mean, read-out: CL (converted)): 20.2 mL/min
half-life ([1]; plasma, Cohort 3, 20 mg single IV bolus, hemodialysis subjects, geometric mean, read-out: T½ (converted)): 175 h
Vd [1, 7]: 293 L
AUC [1, 8]: 8890 ng·h/mL
Cmax [1, 8]: 686 ng/mL
AUC [1, 9]: 14800 ng·h/mL
Cmax [1, 9]: 1080 ng/mL
clearance ([1]; plasma, Cohort 5, 60 mg single IV bolus, hemodialysis subjects, geometric mean, read-out: CL (converted)): 24.2 mL/min
half-life ([1]; plasma, Cohort 5, 60 mg single IV bolus, hemodialysis subjects, geometric mean, read-out: T½ (converted)): 115 h
Vd [1, 9]: 232 L
half-life ([1]; plasma, across the dose range 5-60 mg single IV bolus, read-out: geometric mean terminal elimination half-life): 81.7 to 175 h
clearance ([1]; plasma, single IV bolus, hemodialysis subjects, read-out: Total clearance (converted)): ~33.3 mL/min
corrected calcium level, lowest in any subject at any time during the study [2]: ≥ 7.5 mg/dL
Adverse Event: Anemia ([3]; 5 mg dose cohort): 0 (0%)
Adverse Event: Congestive heart failure ([3]; 5 mg dose cohort): 0 (0%)
Adverse Event: Decreased ionized calcium ([3]; 5 mg dose cohort): 0 (0%)
Adverse Event: Gastro-esophageal reflux ([3]; 5 mg dose cohort): 1 (25%)
Adverse Event: Injection site pruritis ([3]; 5 mg dose cohort): 0 (0%)
Adverse Event: Paresthesias ([3]; 5 mg dose cohort): 1 (25%)
Adverse Event: Pneumonia ([3]; 5 mg dose cohort): 0 (0%)
Adverse Event: Toothache ([3]; 5 mg dose cohort): 0 (0%)
Number of subjects with ≧1 AE ([3]; 5 mg dose cohort): 1 (25%)
Adverse Event: Anemia ([3]; 10 mg dose cohort): 0 (0%)
Adverse Event: Congestive heart failure ([3]; 10 mg dose cohort): 0 (0%)
Adverse Event: Decreased ionized calcium ([3]; 10 mg dose cohort): 1 (33%)
Adverse Event: Gastro-esophageal reflux ([3]; 10 mg dose cohort): 0 (0%)
Adverse Event: Injection site pruritis ([3]; 10 mg dose cohort): 0 (0%)
Adverse Event: Paresthesias ([3]; 10 mg dose cohort): 0 (0%)
Adverse Event: Pneumonia ([3]; 10 mg dose cohort): 0 (0%)
Adverse Event: Toothache ([3]; 10 mg dose cohort): 0 (0%)
Number of subjects with ≧1 AE ([3]; 10 mg dose cohort): 1 (33%)
Adverse Event: Anemia ([3]; 20 mg dose cohort): 0 (0%)
Adverse Event: Congestive heart failure ([3]; 20 mg dose cohort): 0 (0%)
Adverse Event: Decreased ionized calcium ([3]; 20 mg dose cohort): 0 (0%)
Adverse Event: Gastro-esophageal reflux ([3]; 20 mg dose cohort): 0 (0%)
Adverse Event: Injection site pruritis ([3]; 20 mg dose cohort): 0 (0%)
Adverse Event: Paresthesias ([3]; 20 mg dose cohort): 0 (0%)
Adverse Event: Pneumonia ([3]; 20 mg dose cohort): 0 (0%)
Adverse Event: Toothache ([3]; 20 mg dose cohort): 1 (25%)
Number of subjects with ≧1 AE ([3]; 20 mg dose cohort): 1 (25%)
Adverse Event: Anemia ([3]; 40 mg dose cohort): 0 (0%)
Adverse Event: Congestive heart failure ([3]; 40 mg dose cohort): 0 (0%)
Adverse Event: Decreased ionized calcium ([3]; 40 mg dose cohort): 4 (100%)
Adverse Event: Gastro-esophageal reflux ([3]; 40 mg dose cohort): 0 (0%)
Adverse Event: Injection site pruritis ([3]; 40 mg dose cohort): 1 (25%)
Adverse Event: Paresthesias ([3]; 40 mg dose cohort): 1 (25%)
Adverse Event: Pneumonia ([3]; 40 mg dose cohort): 0 (0%)
Adverse Event: Toothache ([3]; 40 mg dose cohort): 0 (0%)
Number of subjects with ≧1 AE ([3]; 40 mg dose cohort): 4 (100%)
Adverse Event: Anemia ([3]; 60 mg dose cohort): 0 (0%)
Adverse Event: Congestive heart failure ([3]; 60 mg dose cohort): 0 (0%)
Adverse Event: Decreased ionized calcium ([3]; 60 mg dose cohort): 2 (50%)
Adverse Event: Gastro-esophageal reflux ([3]; 60 mg dose cohort): 0 (0%)
Adverse Event: Injection site pruritis ([3]; 60 mg dose cohort): 0 (0%)
Adverse Event: Paresthesias ([3]; 60 mg dose cohort): 0 (0%)
Adverse Event: Pneumonia ([3]; 60 mg dose cohort): 0 (0%)
Adverse Event: Toothache ([3]; 60 mg dose cohort): 0 (0%)
Number of subjects with ≧1 AE ([3]; 60 mg dose cohort): 2 (50%)
tolerability ([3]; single IV bolus 5-60 mg): very well-tolerated
reports of nausea, vomiting or diarrhea ([3]; single IV bolus 5-60 mg, 7 days after administration): no reports

C[C@@H](NCCCc1cccc(C(F)(F)F)c1)c1cccc2ccccc12 [cinacalcet]
PTH levels (in words) ([4]; 6 hours after the last dosing): reduced
PTH levels (in words) ([4]; 16 hours after the last dosing): increased
PTH levels (in words) ([4]; 48 hours after the last dosing): increased
